Laboratory results as given in US11324763B2, “Malaria transmission prevention agent having rare sugar as effective component thereof and malarial parasite growth regulating agent” (NATIONAL UNIVERSITY CORPORATION KAGAWA UNIVERSITY, priority 2014, dated 2022).
Entries after “also recorded” stand apart in the source; their conditions may differ.

Tests used:
Assay type in all cases: in vivo
[1] = tested on: Plasmodium berghei parasite in Anopheles stephensi mosquitoes; experiment: Malaria parasite growth in the body of vector mosquitoes fed with a rare sugar (ookinete, oocyst, sporozoite counts); details: Example 5, D-allose 100 mM + 440 mM D-fructose or Rare Sugar Sweet diluted 2.3 times
[2] = tested on: Plasmodium berghei transmission from Anopheles stephensi mosquitoes to BALB/c mice; experiment: Infectivity to mice: malaria transmission by rare-sugar-fed mosquitoes sucking blood of BALB/c mice; details: for onset of malaria in mice: compared with 10 mM group and fructose single feeding group
From the text: 20 days after sucking blood of an infected mouse, each group of mosquitoes which had been fed with a rare sugar (D-allose or D-psicose) and a control group of mosquitoes which had not been fed with a rare sugar were made to suck blood of mice, and the infectivity of malaria in mice was examined. As a result, in a group in which the mosquitoes fed with D-allose were made to suck blood, malaria infection was not observed in about 70% of mice, and the infection inhibitory effect of a rare sugar was confirmed.
(§1) Each of the Anopheles stephensi mosquitoes in the three groups fed with the feed for 20 days in the above Example 1 was made to suck blood of the BALB/c mice (6 weeks of age, female). In each group, 50 mosquitoes were made to suck blood of 5 mice for 1 minute 5 times for each mouse. Every day from 2 days after sucking blood, a smear preparation was prepared from a small amount of blood collected from the tail of each mouse, followed by Giemsa staining, and thereafter, the presence or absence of parasites was examined with a microscope. In some mice, parasites were confirmed 3 days after sucking blood, and thereafter, the incidence rate increased, however, whether or not malaria was developed was determined based on the presence or absence of parasites at the time point of 14 days after sucking blood in the end.
Each of the Anopheles stephensi mosquitoes in the four groups fed with the feed for 20 days in the above Example 3 was made to suck blood of the BALE/c mice (6 weeks of age, female). In each group, 50 mosquitoes were made to suck blood of 5 mice for 1 minute 5 times for each mouse. Every day from 2 days after sucking blood, a smear preparation was prepared from a small amount of blood collected from the tail of each mouse, followed by Giemsa staining, and thereafter, the presence or absence of parasites was examined with a microscope. Whether or not malaria was developed was determined at the time point of 14 days after sucking blood. […] Also in the 30 mM D-allose feeding group, the incidence rate was 100%, however, malaria was developed one day later as compared with the 10 mM D-ailose feeding group and the fructose single feeding group.
as §1, with “Example 5” for “Example 1”, “the BALE/c” for “the BALB/c”

[3] = tested on: Plasmodium berghei parasite in Anopheles stephensi mosquitoes; experiment: Malaria parasite growth in the body of vector mosquitoes fed with a rare sugar (ookinete, oocyst, sporozoite counts); details: for formation of ookinetes in the midgut of the mosquito: 100 mM rare sugar + 440 mM D-fructose fed, one day after sucking infected blood, vs control
Procedure: In order to block malaria transmission, a vector mosquito is fed with a feed containing a rare sugar in advance, and then made to suck blood of a mouse infected with Plasmodium berghei parasite, whereby garaetocytes are ingested into the midgut of the vector mosquito. Thereafter, the feed containing a rare sugar is continuously given to the mosquito, and at the time point when one day has passed after the gametocytes are ingested into the body, the number of ookinetes in the midgut is evaluated, and then, the number of oocysts on the midgut after 10 days, the number of sporozoites in the midgut and the number of sporozoites in the salivary glands after 18 days are evaluated. In this manner, the malaria parasite growth inhibitory effect of the rare sugar was examined.
First, three groups, each of which includes about 200 Anopheles stephensi mosquitoes, were prepared, and in a first group, a mixed aqueous solution of 100 mM D-allose and 440 mM D-fructose was fed, in a second group, a mixed aqueous solution of 100 mM B-psicose and 440 mM D-fructose was fed, and in a third group, an aqueous solution of 440 mM D-fructose was fed, which was used as a control. Each of these aqueous solutions was placed in an Erlenmeyer flask, and a lower end portion of a filter paper was dipped in the aqueous solution, and Anopheles stephensi mosquitoes were fed with the aqueous solution absorbed in the filter paper.
Further, red blood cells infected with Plasmodium berghei parasite were intraperitoneally administered to BALB/c mice (6 weeks of age, female), whereby mice infected with malaria were prepared.
Anopheles stephensi mosquitoes in each group were made to suck each aqueous solution for 3 days, and thereafter, made to suck blood of the mice infected with Plasmodium berghei malaria, whereby the malaria parasites were incorporated in the body of Anopheles stephensi mosquitoes. Subsequently, while continuously giving the fructose aqueous solution containing a rare sugar or the aqueous solution containing only fructose, the number of parasites in the body of the mosquitoes was evaluated at the below-mentioned timings. That is, 24 hours after sucking infected blood, the number of ookinetes in the midgut was counted, the number of oocysts on the midgut was counted after 10 days, and the number of sporozoites in the midgut and in the salivary glands were counted after 18 days, and the results of the three groups were compared.
The D-allose concentration dependence for malaria parasite growth blocking effect of a rare sugar was examined. Four groups of Anopheles stephensi mosquitoes were prepared, and in a first group to a third group, mixed aqueous solutions of 10 mM, 30 mM, or 100 mM D-allose and 440 mM D-fructose were fed, respectively, and in a fourth group, an aqueous solution of 440 mM D-fructose was fed. In each of these aqueous solutions, a lower end portion of a filter paper was dipped, and Anopheles stephensi mosquitoes were fed with the aqueous solution absorbed in the filter paper.
Anopheles stephensi mosquitoes in each group were made to suck each aqueous solution for 3 days, and thereafter, made to suck blood of the mice infected with Plasmodium berghei malaria, whereby the malaria parasites were incorporated in the body of Anopheles stephensi mosquitoes. Thereafter, while continuously giving the aqueous solution containing a rare sugar or the aqueous solution containing only fructose, the number of parasites in the body of the mosquitoes was counted at respective timings. That is, 24 hours after sucking infected blood, the number of ookinetes in the midgut, was counted, the number of oocysts on the midgut was counted after 10 days, and the number of sporozoites in the midgut and in the salivary glands were counted after 18 days, and the results of the four groups were compared. […]

[4] = Example 2, mosquitoes fed 100 mM rare sugar + Fructose 440 mM for 20 days, determined 14 days after sucking blood
[5] = Examples 1 and 2, 100 mM rare sugar + 440 mM D-fructose
[6] = Example 1, 100 mM rare sugar + 440 mM D-fructose, 10 days after sucking blood
[7] = Example 1, 100 mM rare sugar + 440 mM D-fructose, 18 days after sucking blood

For O=C[C@H](O)[C@H](O)[C@H](O)[C@H](O)CO [D-allose], the “number of oocysts suppressed as compared with the control group” value ([1]; 10 days after sucking blood) was 100%, the “number of sporozoites in the midgut suppressed as compared with the control group” value ([1]; 18 days after sucking blood) was 100% and the “number of sporozoites in the salivary glands suppressed” value ([1]; 18 days after sucking blood) was 100%. For the same compound, the “Incidence rate after sucking blood (%) (mice which developed malaria/mice which had their blood sucked)” value [2, 4] was 29%, the “Incidence rate after sucking blood (%) (mice which developed malaria/mice which had their blood sucked)” value ([2]; Example 2, mosquitoes fed 100 mM rare sugar + Fructose 440 mM for 20 days, determined 14 days after sucking blood, listed as Allose) was 29 (2/7) % and the “number of sporozoites inoculated into the mice when having their blood sucked” value ([2]; Example 4, 30 mM D-allose feeding group, inferred from onset one day later) was “about one-tenth”. The “malaria transmission / development of malaria in mice” value ([2]; Example 4, 100 mM D-allose + D-fructose) was “did not develop malaria”, the incidence rate suppressed ([2]; Example 4, 100 mM D-allose feeding group) was 100% and the “Incidence rate after sucking blood (%) (mice which developed malaria/mice which had their blood sucked)” value ([2]; Example 4, Allose 10 mM + Fructose 440 mM, 14 days after sucking blood) was 100%. The “Incidence rate after sucking blood (%) (mice which developed malaria/mice which had their blood sucked)” value ([2]; Example 4, Allose 10 mM + Fructose 440 mM, 14 days after sucking blood, listed as Allose) was 100 (5/5) %, the “Incidence rate after sucking blood (%) (mice which developed malaria/mice which had their blood sucked)” value ([2]; Example 4, Allose 30 mM + Fructose 440 mM, 14 days after sucking blood) was 100% and the “Incidence rate after sucking blood (%) (mice which developed malaria/mice which had their blood sucked)” value ([2]; Example 4, Allose 30 mM + Fructose 440 mM, 14 days after sucking blood, listed as Allose) was 100 (5/5) %. For the same compound, the “onset of malaria in mice” value ([2]; Example 4, Allose 30 mM + Fructose 440 mM) was “one day later”, the “onset of malaria in mice” value ([2]; Example 4, Allose 30 mM + Fructose 440 mM, listed as Allose) was “The onset was delayed” and the “Incidence rate after sucking blood (%) (mice which developed malaria/mice which had their blood sucked)” value ([2]; Example 4, Allose 100 mM + Fructose 440 mM, 14 days after sucking blood) was 0 (0/5) %. For the same compound, the “Incidence rate after sucking blood (%) (mice which developed malaria/mice which had their blood sucked)” value ([2]; Example 6, Allose 100 mM + Fructose 440 mM or Rare Sugar Sweet diluted 2.3 times, 14 days after sucking blood) was 0 (0/5) %, the “malaria transmission (transmission-blocking effect)” value ([2]; Example 6, D-allose 100 mM + D-fructose or Rare Sugar Sweet diluted 2.3 times) was “completely inhibited; also recorded: completely transmission-blocking effect” and the “malaria transmission (transmission-blocking effect)” value [2, 5] was “significantly suppressed; also recorded: completely blocks”. For the same compound, the “mice in which malaria infection was not observed” value ([2]; mosquitoes fed with rare sugar, 20 days after sucking blood of an infected mouse) was “about 70%”, the “formation of ookinetes in the midgut of the mosquito” value ([3]; Example 1) was “not suppressed; also recorded: slight” and the “formation of oocysts on the midgut” value [3, 6] was “suppressed”. The “number of oocysts suppressed as compared with the control group” value [3, 6] was 95%, the “formation of sporozoites in the midgut” value [3, 7] was “suppressed” and the “formation of sporozoites in the salivary glands” value [3, 7] was “suppressed”. For the same compound, the “number of sporozoites in the midgut suppressed as compared with the control group” value [3, 7] was 98.7%, the “number of sporozoites in the salivary gland suppressed as compared with the control group” value [3, 7] was 98.5% and the “number of sporozoites in the salivary glands” value ([3]; Example 3, 30 mM D-allose feeding group, 18 days after sucking blood) was “significantly decreased”. The number of oocysts ([3]; Example 3, D-allose 10 mM to 100 mM + 440 mM D-fructose, 10 days after sucking blood) was “suppressed in a D-allose concentration-dependent manner”, the “growth into ookinetes in the midgut” value ([3]; Example 3, D-allose 10 mM to 100 mM + 440 mM D-fructose, one day after sucking blood) was “suppressed in a concentration-dependent manner” and the “growth of oocysts on the midgut” value ([3]; Example 3, D-allose 100 mM + 440 mM D-fructose, 10 days after sucking blood) was “almost completely suppressed”. For the same compound, the “formation of sporozoites (midgut and salivary glands)” value ([3]; Example 3, D-allose 100 mM + 440 mM D-fructose, 18 days after sucking blood) was “completely suppressed” and the “suppression of the formation of ookinetes in the midgut” value ([3]; Example 5, D-allose 100 mM + 440 mM D-fructose or Rare Sugar Sweet diluted 2.3 times, one day after sucking blood) was “slight”.

O=C(CO)[C@H](O)[C@H](O)[C@H](O)CO [D-psicose] was tested, and the “Incidence rate after sucking blood (%) (mice which developed malaria/mice which had their blood sucked)” value [2, 4] was 100%, the “Incidence rate after sucking blood (%) (mice which developed malaria/mice which had their blood sucked)” value ([2]; Example 2, mosquitoes fed 100 mM rare sugar + Fructose 440 mM for 20 days, determined 14 days after sucking blood, listed as Psicose) was 100 (6/6) % and the “malaria transmission (transmission-blocking effect)” value [2, 5] was “not observed”. The “formation of ookinetes in the midgut of the mosquito” value ([3]; Example 1) was “suppressed to some extent; also recorded: somewhat suppressed”, the “formation of oocysts on the midgut” value [3, 6] was “slightly promoted” and the “formation of sporozoites in the salivary glands” value [3, 7] was “slightly exceeding that in the control”. The “number of sporozoites in the midgut suppressed as compared with the control group” value [3, 7] was “about 60%”.
